According to publication PMC5848165 (Toxins, 2018):

What was measured:
hot plate test in mice = test: Hot plate test; type: in vivo, mouse (Kunming); conditions: 5 mg/kg i.p., baseline about 10 s, n = 6
Protocol: (§1) Figure 6 Effects of JZTX-34 on pain. (A) Effects of JZTX-34 on the early phase (0–5 min) and late phase (15–30 min) of formalin-induced paw licking response in mice. (B) Effects of JZTX-34 on the acetic acid-induced writhing response in mice. (C)Effects of JZTX-34 on the hot plate test in mice.
Mice with a latency time about 10 s were selected for the hot plate test. […] After administration of test samples, the latency time was recorded at the time points of 30 min, 60 min, 120 min, and 180 min (Figure 6C). Negative control animals received the same volume of vehicle.
(§2) The synthesized JZTX-34 was obtained according to the procedure as previously described. […] Rats (Sprague-Dawley) and Kunming mice were maintained in the Laboratory of Protein Chemistry of Hunan Normal University. All of the experimental involving animals were approved by the Animal Care and Use Committee of Hunan Normal University (2016-273, 13 October 2016).
Mice were put on a hot plate apparatus (model HZ66-ZH-YLS-6B, Shanghai, China) in order to test response time to a thermal stimulus. The responses time of mice at about 10 s was selected for the test. […] Hind paw licking or jumping were regarded as a sign to avoid heat nociception.
(§3) Data from Axon 700B patch clamp were analyzed by Clampfit10.0 (Molecular Devices, Sunnyvale, CA, USA). Dose-response curves were fitted by the Hill logistic equation: y = 1 − (1 − fmax)/[…]. In this equation, n stands an empirical Hill coefficient and fmax is the fraction of current resistant to inhibition at high toxin (Tx) concentration. The G-V curves were obtained by calculating the conductance (G) at each voltage (V) using the equation G = I/(V1 − Vrev), with Vrev being the reversal potential determined for each cell individually. G-V curves were fitted using a Boltzmann equation—y = 1/(1 + exp[(Va − V)/κ])—in which Va, V, and κ represent midpoint voltage of kinetics, test potential, and slope factor, respectively. […] Statistical significance was calculated using Student’s t-test and was defined as p < 0.05.

[1] = tested on: formalin-induced paw licking response in mice; test: Formalin-induced paw licking; type: in vivo, mouse (Kunming); conditions: 5 mg/kg i.p., n = 6
Protocol: Since Nav1.7 plays an important role in pain, the analgesic effects of JZTX-34 were examined in three animal models (formalin-induced paw licking, acetic acid-induced writhing, and hot plate). Intraplantar injection of formalin causes pain and can be divided into two phases. The early phase was neurogenic pain and usually occurred within […]), and the late phase was inflammatory pain lasting from 15 to 30 min).
as §1, §2
Formalin test was performed according to the method described previously. […] After test samples were intraperitoneally (i.p.) injected, 5% formalin (20 μL) was injected to the plantar surface of right hind paw. The time spent licking the injected paw was counted every 5 min. Phase I was defined as 0–10 min, and Phase II defined as […].
as §3

[2] = tested on: inflammatory pain and neuropathic pain; conditions: cited from earlier work
[3] = tested on: other sodium channel subtypes; conditions: literature statement, no reference given; cited from earlier work
Nav1.7 = conditions: cited from earlier work; for potency on Nav1.7 (literature): ref [14],[15]
Source text: Chronic pain is one of the most difficult clinical problems. As Nav1.7 is considered one of the most attractive targets for relieving chronic pain, scientist have paid a lot of effort to look for a selective inhibitor of Nav1.7. Several small molecules with selectivity on Nav1.7 are currently undergoing clinical development, including PF-05089771 (Pfizer, New York, NY, USA) and CNV1014802 (Convergence Pharmaceuticals, London , UK). Compared to small molecules, peptide toxins have better subtype selectivity due to their larger pharmacophore. Spider venoms are a rich source of ion ch ... || Many peptide toxins, which alter gating properties of VGSCs, have been identified to trap the DIIS3-S4 linker of sodium channels. However, the molecular mechanisms of inhibition of sodium currents by peptide toxins are greatly divergent. […] Pro ...

[4] = tested on: C-fiber compound action potential; set-up: method as in PMID 28045073; conditions: desheathed cutaneous nerves; ref [27]; cited from earlier work

## CN1CC[C@]23c4c5ccc(O)c4O[C@H]2[C@@H](O)C=C[C@H]3[C@H]1C5 [morphine, reference compound]
Hot plate test in mice; 30 min
  hot plate latency: 24.8
Hot plate test in mice; 60 min
  hot plate latency: 12.2 s
[1]; control 145.5 s
  paw licking time, early phase: 35.3 s
[1]; control 414.5 s
  paw licking time, late phase: 265 s

## HWTX-IV
[2]; ref [28]
  relief of acute inflammatory and chronic neuropathic pain: efficiently eased the acute inflammatory pain and chronic neuropathic pain
[3]
  activity on other sodium channel subtypes: also show activity on other sodium channel subtypes
Nav1.7
  potency on Nav1.7 (literature): very potent Nav1.7 blockers
Nav1.7; ref [25]
  effect on channel gating (HWTX-IV, literature): without affecting activation or inactivation of channels

## ProTx-II
[2]; ref [27]
  analgesic effect on severe pain: exerted a strong analgesic effect on severe pain
[3]
  activity on other sodium channel subtypes: also show activity on other sodium channel subtypes
Nav1.7
  potency on Nav1.7 (literature): very potent Nav1.7 blockers
Nav1.7; ref [26]
  effect on channel gating (ProTx-II, literature): modified the voltage dependence of VGSC inactivation
[4]
  C-fiber compound action potential: completely blocked the C-fiber compound action potential
